One data set has as its system E. coli. Nature of the data set: Antimicrobial susceptibility testing (AST) with MST read-out of 16S rRNA. More on the design: dose or concentration left out as unconfirmed. To be noted: 5*10^5 bacteria; 90-150 minutes.
A further data set relates to 16S rRNA (E. coli). Nature of the data set: MST of Cy5 probes hybridized with total bacterial RNA. The format is binding. Here is the method: For bacterial RNA extraction, DH5α E. coli cells transfected with pcDNA3.1+ plasmid were grown overnight in LB medium containing 100 μg/ml ampicillin. The concentration of bacterial cells was determined according to OD at 600 nm, and ˜7·10^8 cells were taken for RNA extraction. 1 volume of bacterial culture was mixed with 2 volumes of RNAprotect® Bacteria Reagent (QIAGEN), vortexed for 5 seconds and incubated for 5 minutes at room temperature. The sample was then centrifuged for 10 minutes at 5,000×g at room temperature. After discarding supernatant, the pellet was resuspended in 100 μl TE buffer (10 mM Tris-HCl, 1 mM EDTA, pH 8) containing 1 mg/ml lysozyme. The samples were vortexed for 5 seconds, and then incubated at room temperature for 10 minutes with vortexing every 2 minutes. 1 ml TRIzol™ reagent was added to the sample. The sample was incubated at room temperature for 5 minutes, and then RNA extraction was performed as described hereinabove.
RNA was extracted from a sample, and after extraction, the RNA pellet was solubilized and hybridized with a specific fluorescently labeled DNA probe in a hybridization solution (as schematically depicted in FIG. 1). After hybridization, the hybridized sample was loaded into an MST capillary and inserted into a Monolith™ MST instrument (NanoTemper Technologies GmbH, Germany). This instrument included a blue mode (493 nm excitation, […]) and red mode ([…], 670 nm emission) for detection, and an I.R laser (1475 nm+/−15 nm) for heating. The intensities for both fluorescence detection (LED) and IR laser are adjustable, in a range of 0%-100%, wherein the temperature gradient generated has a temperature difference of up to about 2-8° C. Thermophoretic force was induced by infrared laser after 1 second, and maintained for 2 seconds, for a total of a 3 second measurement window (measurement time may optionally be further reduced to 2 seconds using current available MST instruments).
For RNA titration measurements, the extracted RNA solution was diluted to X2 and a serial dilution was prepared in water. Hybridization solutions were prepared as described herein, were X1 solution consisted of SSC buffer X1, 0.05% TWEEN™ 20 surfactant, and 1% formamide unless indicated otherwise. Fluorescently labeled probes were diluted from a 100 μM stock to 1:2400 in hybridization solution X2, denatured for 5 minutes at 100° C. and then incubated on ice for 5 minutes. If a mixture of uniformly labeled probes was prepared, the probes were diluted to a 1:1200 dilution in water and then diluted to 1:2400 with hybridization solution X4 (1:1/number of probes) to create equal molarity of the fluorescent dye. The probe solution was combined with the titration series in a 1:1 (v/v) ratio (10 μL total volume) and allowed to hybridize at a defined temperature for a given time as described. If post-hybridization with intercalating agents (ICA), doxorubicin or Midori™ Green, was performed, the samples were combined with ICA X5 solution 4:1 (v:v) ratio, 8 μL and 2 μL respectively. For cell based measurements, after extraction, the RNA pellet was solubilized and hybridized with a specific fluorescently labeled DNA probe in a hybridization solution (as schematically depicted in FIG. 1).
In order to determine the optimal hybridization temperature, one of the designed probes (16S1^Cy5) was incubated with increasing concentrations of bacterial RNA at different temperatures for 10 minutes. MST measurements were then performed using the red wavelength acquisition mode.
In order to assess the effect of human RNA presence and Dox post-hybridization on signal response, 16S1^Cy5 was incubated with increasing concentrations of bacterial or human total RNA at 71° C. for 2 hours. Equal amounts were then taken for post-hybridization incubation with Dox or hybridization buffer as a control. […]

A further data set has as its system S-gene RNA (SARS-CoV2). The format is binding.
Data set [1] can be described thus: MST of Dox alone in hybridization solution. The format is physicochemical. To be noted: 3.125-100 μM Dox; no RNA, no probes; blue mode. On the procedure: In order to investigate the possibility that Dox monomers interact with each other, thereby causing Dox to migrate into the heating zone particularly at high Dox concentrations, Dox was incubated in hybridization solution without the presence of either S-gene RNA or the DNA probes.

The test system of another data set is human total RNA. Nature of the data set: MST of 16S probe / Dox with human total RNA (specificity). The format is binding. To be noted: 100 μM Dox with 16S1^Cy5; blue mode. Here is the method:
In order to assess the effect of human RNA presence and Dox post-hybridization on signal response, 16S1^Cy5 was incubated with increasing concentrations of bacterial or human total RNA at 71° C. for 2 hours. Equal amounts were then taken for post-hybridization incubation with Dox or hybridization buffer as a control.
In order to compare signal sensitivity in the presence and absence of Dox, ΔFnorm[‰] values of human RNA were subtracted (ΔΔFnorm), and the ratios of ΔΔFnorm[‰] were compared.

The source of these data is patent US20250340939A1 (priority 2021, published 2025).

“Also recorded” adds a separate entry of the source.

For `CC1(C)S[C@@H]2[C@H](NC(=O)[C@H](N)c3ccccc3)C(=O)N2[C@H]1C(=O)O` [Ampicillin], the “growth of E. coli bacteria in the presence of antibiotic” value in the data set on E. coli is recorded as “no growth was observed”.
Regarding `COc1cccc2c1C(=O)c1c(O)c3c(c(O)c1C2=O)C[C@@](O)(C(=O)CO)C[C@@H]3O[C@H]1C[C@H](N)[C@H](O)[C@H](C)O1` [Dox, doxorubicin, reference compound], the “effect of Dox on signal sensitivity of 16S probes” value in the data set with 16S rRNA (E. coli) (100 μM Dox post-hybridization) is reported as “increased signal sensitivity; also recorded: enhanced signal sensitivity to a considerable extent”. Also, the “Dox signal dependence on RNA concentration” value was “dependent on the concentrations of both human RNA and bacterial RNA” in the data set with 16S rRNA (E. coli) (100 μM Dox with 16S1^Cy5, blue mode); “dependent on the concentrations of both human RNA and bacterial RNA” in the data set with human total RNA. Further, the “effect of Dox on slope of S^Cy5 linear regression (analytical sensitivity)” value in the data set with S-gene RNA (SARS-CoV2) (100 μM Dox vs 0, 1 or 10 μM Dox) is recorded as “steeper slope”. Also, the “effect of S-gene RNA concentration on Dox signal without DNA probe” value with S-gene RNA (SARS-CoV2) (100 μM Dox, no S^Cy5 probe, blue mode) is reported as “did not noticeably affect the change in signal”. Further, the “Dox fluorescence dependence on S-gene RNA concentration” value in the data set with S-gene RNA (SARS-CoV2) (1, 10 or 100 μM Dox, S^Cy5 present, blue mode) was “dependent on S-gene RNA concentration”. Also, the “effect of Dox on initial fluorescence intensity of S^Cy5” value in the data set with S-gene RNA (SARS-CoV2) (1, 10 or 100 μM Dox, dose-dependent, prior to temperature gradient) is “decreased the initial fluorescence intensity values”. For the same compound, the “degree of Dox migration into the heating zone” value in data set [1] was “correlated to Dox concentration”.
